The values that follow come from patent publication US20220117941A1, “CARBAMATE COMPOUND AND USE OF FORMULATION COMPRISING SAME IN PREVENTING, ALLEVIATING, OR TREATING ACUTE STRESS DISORDER OR POST-TRAUMATIC STRESS DISORDER” (SK BIOPHARMACEUTICALS CO., LTD., priority 2018, published 2022).

Each structure is given as a SMILES string. Where a name gives a salt, the structure may show the parent alone.

One assay concerns mice (CD-1). Kind of assay: Forced swimming test in mice with combination of Test Compound and selective serotonergic reuptake inhibitor. In kind it is in vivo. Conditions: CD-1 mice, 30 min after injection, FIG. 5. Here is the method: Adult mice (CD-1) were used. The experimental animals were maintained at a light-and-darkness cycle of 12 hours (illuminated from 7 pm to 7 am), a temperature of 22 to 25° C., a relative humidity of 40 to 60%, and free access to water and food. The animals were randomly divided into four groups as follows: • Eight (8) mice as a control group, administered with intraperitoneal injection of saline as a vehicle at a dose volume of 10 ml/kg (Group 1) • Eight (8) mice as an experimental group, administered with intraperitoneal injection of Test Compound at a dose of 5 mg/kg (10 ml/kg) (Group 2) • Eight (8) mice as an experimental group, administered with intraperitoneal injection of fluoxetine hydrochloride at a dose of 10 mg/kg (10 ml/kg) (Group 3) • Eight (8) mice as an experimental group, administered with intraperitoneal injection of Test Compound at a dose of 5 mg/kg (10 ml/kg) and fluoxetine hydrochloride at a dose of 10 mg/kg (10 ml/kg) (Group 4)
To perform a forced swimming test in the mice of Groups 1 to 4, water of 25° C. was filled to a height of 20 cm in a transparent cylinder. […] The results are represented in FIG. 5.
Statistical analysis was carried out by using one-way ANOVA in Prism 7.04.

A further assay deals with blood corticoid. Kind of assay: Measurement of corticoid in blood of SPS-induced post-traumatic stress disorder rats (ELISA). Type of assay: in vivo, rats (Sprague-Dawley). Conditions: SPS-induced PTSD rats; 30 mg/kg orally for 15 days; vs vehicle-treated PTSD-induced rats; FIG. 4. As to the method: Adult male rats (Sprague-Dawley, 200 to 230 g) were used. The experimental animals were maintained at a light-and-darkness cycle of 12 hours (illuminated from 7 pm to 7 am), a temperature of 22 to 25° C., a relative humidity of 40 to 60%, and free access to water and food. The animals were randomly divided into three groups as follows: • Eight (8) rats as a control group, orally administered with saline as a vehicle at a dose volume of 3 ml/kg (Group 1) • Seven (7) rats in which post-traumatic stress disorder was induced, and saline as a vehicle was then orally administered at a dose volume of 3 ml/kg (Group 2) • Seven (7) rats in which post-traumatic stress disorder was induced, and Test Compound was then orally administered at a dose of 30 mg/kg (3 ml/kg) (Group 3) […]
(§1) Post-traumatic stress disorder was induced in Group 2 and Group 3 as described above. […] All experimental animals were measured daily for changes in mortality and body weight to determine whether post-traumatic stress disorder was well induced. […]
Rats were sacrificed rapidly by decapitation on the day after the forced swimming test, and blood was quickly collected via the abdominal aorta. […] The corticoid concentration was measured by enzyme-linked immunoassay (ELISA) using a Novus Biologicals Corticosterone kit. The results were measured by means of an ELISA reader (MultiRead 400) to calculate the concentration of corticoid. […]
Background: An ELISA detects its analyte on a solid surface through an enzyme-linked reagent.

Assay [1] deals with rats in which post-traumatic stress disorder was induced by single prolonged stress (SPS). Kind of assay: Forced swimming test in rats with post-traumatic stress disorder induced by single prolonged stress (SPS). In kind it is in vivo, rats (Sprague-Dawley). Conditions: SPS-induced PTSD rats; 30 mg/kg orally for 15 days; FIGS. 1 to 3. As to the method:
Adult male rats (Sprague-Dawley, 200 to 230 g) were used. The experimental animals were maintained at a light-and-darkness cycle of 12 hours (illuminated from 7 pm to 7 am), a temperature of 22 to 25° C., a relative humidity of 40 to 60%, and free access to water and food. […]
as §1
To carry out a forced swimming test in the rats of Groups 1 to 3, water of 25° C. was filled to a height of 30 cm in a transparent cylinder (20 cm in diameter×50 cm in height). […] After 24 hours, rats were inserted into the cylinder for 5 minutes and the escape behavior of rats was recorded and measured using a video camera. […] Climbing behavior measured the time to climb upward, immobility behavior measured the time to not escape, and swimming behavior measured the time to move horizontally in the cylinder. […]

As for `NC(=O)O[C@@H](Cn1ncnn1)c1ccccc1Cl` [Test Compound], in the assay with mice (CD-1) (5 mg/kg intraperitoneal), the “immobility time in forced swimming test (Test Compound alone)” value is “ineffective dose”. Also, the blood corticoid concentration entry in the assay with blood corticoid is recorded as “statistically significant reduction”. For the same compound, in assay [1], the “efficacy on symptoms associated with post-traumatic stress disorder (climbing, immobility and swimming behaviors in forced swimming test)” value was “showing efficacy on alleviating symptoms associated with post-traumatic stress disorder”.
As for `CNCCC(Oc1ccc(C(F)(F)F)cc1)c1ccccc1` (stereo not shown) [fluoxetine, fluoxetine hydrochloride, reference compound], the “immobility time in forced swimming test (fluoxetine alone)” value in the assay on mice (CD-1) (fluoxetine hydrochloride 10 mg/kg intraperitoneal) is “ineffective dose”.
